The values that follow come from publication PMC2630848, “Acetylcholinesterase-Inhibiting Activity of Pyrrole Derivatives from a Novel Marine Gliding Bacterium, Rapidithrix thailandica” (Marine Drugs, 2008).

The experiment addresses acetylcholinesterase (AChE) (Tetronarce californica, UniProt P04058). Nature of the experiment: Ellman colorimetric AChE assay with acetylthiocholine iodide and DTNB, […] nm, triplicate. The experiment is classed as biochemical. (In general: DTNB colorimetry detects thiols as they appear.)

By IC50 is commonly meant the point on the concentration scale where inhibition reaches its midpoint. High values mean weaker potency, low ones greater potency.

acetylcholinesterase (AChE), sequence (P04058 22-564): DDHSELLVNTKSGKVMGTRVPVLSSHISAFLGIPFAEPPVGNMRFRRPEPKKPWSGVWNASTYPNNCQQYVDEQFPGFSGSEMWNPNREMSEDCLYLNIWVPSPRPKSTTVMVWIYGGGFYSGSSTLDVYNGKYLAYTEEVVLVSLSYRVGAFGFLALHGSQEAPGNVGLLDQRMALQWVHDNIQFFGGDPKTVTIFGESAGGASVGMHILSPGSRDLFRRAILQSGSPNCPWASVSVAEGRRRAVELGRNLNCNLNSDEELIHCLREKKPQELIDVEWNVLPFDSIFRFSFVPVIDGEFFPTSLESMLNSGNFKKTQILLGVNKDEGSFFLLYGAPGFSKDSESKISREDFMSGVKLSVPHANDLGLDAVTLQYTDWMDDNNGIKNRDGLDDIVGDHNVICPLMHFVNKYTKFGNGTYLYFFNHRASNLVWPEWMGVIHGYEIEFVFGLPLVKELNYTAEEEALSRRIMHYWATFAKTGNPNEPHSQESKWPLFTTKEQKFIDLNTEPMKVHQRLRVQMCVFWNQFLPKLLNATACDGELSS

In the case of `Cc1nc2ccccc2c2cc[nH]c12` [compound 1, 4-Methyl-3H-pyrrolo[2,3-c]quinoline], the IC50 came out at 4.9 ± 0.9 µM.
